# Columns and labels:
# Assay in all cases: light-driven cytochrome c2 oxidation at […] nm, steady state
# Assay type in all cases: biochemical
# [1] = target: T1, dimeric RC-LH1 core complex (Cereibacter sphaeroides, UniProt Q3J1A5+Q3J1A6); details: 50 uM ubiquinone-2, 5 uM reduced cytochrome c2, 810 nm LED, pH 8, 0.03% beta-DDM; electron acceptor; 0.01 uM RC-LH1
# T1 construct: gene pufL; native, beta-DDM-solubilised membranes, sucrose gradient dimer band; 2 RC, S-shaped LH1 of 28 subunits; with Reaction center protein M chain; Reaction center protein H chain; Light-harvesting protein B-875 alpha chain; Light-harvesting protein B-875 beta chain; Intrinsic membrane protein PufX; Protein-Y; Protein-Z
# [2] = target: T2, monomeric RC-LH1 core complex (RC3-LH1_14-XY) (Cereibacter sphaeroides, UniProt Q3J1A5+Q3J1A6); details: 50 uM ubiquinone-2, 5 uM reduced cytochrome c2, 810 nm LED, pH 8, 0.03% beta-DDM; electron acceptor; 0.05 uM RC-LH1
# T2 construct: gene pufL; native, beta-DDM-solubilised membranes, sucrose gradient monomer band; 1 RC, C-shaped LH1 of 14 subunits; with Reaction center protein M chain; Reaction center protein H chain; Light-harvesting protein B-875 alpha chain; Light-harvesting protein B-875 beta chain; Intrinsic membrane protein PufX; Protein-Y
# [3] = target: T2, monomeric RC-LH1 core complex (RC3-LH1_14-XY); details: 50 uM ubiquinone-2, 5 uM reduced cytochrome c2, 810 nm LED, pH 8, 0.03% beta-DDM; electron acceptor
compound,measurement,setting,value
COC1=C(OC)C(=O)C(C/C=C(\C)CCC=C(C)C)=C(C)C1=O [ubiquinone-2],"light-driven cytochrome c2 oxidation at 550 nm, steady state",[1],light-driven oxidation rate of cytochrome c2 by monomeric and dimeric complexes in the presence of ubiquinone-2
same,"light-driven cytochrome c2 oxidation at 550 nm, steady state",[2],"Turnover assays for monomeric complexes from WT, PufX R49L R53L, ΔolsBA and ΔsqdB mutants"
same,"light-driven cytochrome c2 oxidation at 550 nm, steady state",[3],light-driven oxidation rate of cytochrome c2 by monomeric and dimeric complexes in the presence of ubiquinone-2
